From PMC9007462 (Journal of Medicinal Chemistry, 2022) come the findings set out here.

Assay [1] concerns the target T1, Human ALDH1A3 (Homo sapiens, UniProt P47895).
T1 construct: made in house
T1 sequence (P47895 1-512): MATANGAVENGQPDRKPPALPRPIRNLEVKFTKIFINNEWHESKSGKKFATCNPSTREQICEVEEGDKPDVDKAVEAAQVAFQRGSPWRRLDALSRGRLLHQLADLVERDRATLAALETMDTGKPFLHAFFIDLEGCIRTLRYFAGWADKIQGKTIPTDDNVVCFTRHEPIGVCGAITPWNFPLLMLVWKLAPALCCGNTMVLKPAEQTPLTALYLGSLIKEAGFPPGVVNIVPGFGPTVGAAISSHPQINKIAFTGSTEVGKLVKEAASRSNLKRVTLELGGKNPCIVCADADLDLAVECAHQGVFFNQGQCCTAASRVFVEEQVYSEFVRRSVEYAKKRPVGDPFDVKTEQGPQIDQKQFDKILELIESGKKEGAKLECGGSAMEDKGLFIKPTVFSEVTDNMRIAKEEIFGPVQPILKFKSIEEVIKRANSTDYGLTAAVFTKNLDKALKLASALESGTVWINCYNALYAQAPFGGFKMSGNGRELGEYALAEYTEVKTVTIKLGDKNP
Description: ALDH1A3 inhibition, IC50, Ki and type of inhibition. The format is biochemical. The settings on record: for IC50: 6 μM hexanal as substrate; for IC50 / Ki: mean ± SE; for type of inhibition ALDH1A3 / Ki: hexanal as substrate; for Ki: fit to competitive inhibition equation. Here is the method: Human ALDH1A1, ALDH1A3, and ALDH3A1 were cloned and recombinantly expressed from the pET-30 Xa/LIC vector. Protein purification was achieved by affinity chromatography on a nickel-charged chelating Sepharose Fast Flow 5-mL column (His Trap column, Cytiva), which specifically binds the protein due to its N-terminal (His)6 tag, using an ÄKTA FPLC system (Cytiva), as previously described.[55] Enzymes including the His tag were stored at −80 °C in 20 mM Tris/HCl and 0.5 M NaCl, pH 8.0, until use. Reaction buffers were as follows: ALDH1A1 was assayed in 50 mM HEPES, 0.5 mM EDTA, and 0.5 mM DTT, pH 8.0; […] Activity under standard conditions was measured fluorimetrically at 25 °C using a Cary Eclipse (Varian) fluorimeter to follow the purification procedure and to check the enzyme concentration before each kinetic experiment. […] In order to determine the IC50 values, reaction rates were determined at various concentrations of inhibitor at a fixed concentration of substrate. […] Values are expressed as the mean ± SE. […] The data of enzymatic activities at different inhibitor concentrations were fitted to the Michaelis–Menten equation to determine the values of Km and Vmax. Next, results were fitted to the equations for competitive, given by [drawing 3]; noncompetitive, given by [drawing 4]; uncompetitive, given by [drawing 5]; and mixed, given by [drawing 6] .[56] The type of inhibition was selected based on the lowest error value. Parameters were expressed as the mean ± SE.

The subject of assay [2] is DU145. Put plainly: MTT chemosensitivity assay, DU145. The format is cell-based, human. The settings on record: ± SD, at least three independent experiments. Here is the method:
(§1) MTT (3-(4, 5-dimethyl-2-thiazolyl)-2, 5-diphenyl-2H-tetrazolium bromide) assay was used to determine cell viability.[64] Immortalized PCa cells (PC-3, Du-145, and LNCaP) were seeded in 96-well plates and allowed to adhere overnight at 37 °C, 5% CO2, and 100% humidity. […] After 96 h of exposure, 200 μL of MTT (Sigma) solution (0.5 mg/mL) was added to each well and incubated at 37 °C for 4 h. The formazan crystals were dissolved in DMSO (Sigma), and the absorbance was read using a microplate reader (Multiskan EX; Thermo Fisher Scientific) at 540 nm. Data analysis was performed using Microsoft Excel 2013 and GraphPad Prism software.
(In general: Formazan colour is commonly taken as a measure of viable cells.)

Assay [3] has as its system LNCaP. Description: MTT chemosensitivity assay, LNCaP. Format: cell-based, human. The conditions noted are these: 96 h exposure, ± SD, at least three independent experiments. The method, then:
as §1

The subject of assay [4] is PC3. Description: MTT chemosensitivity assay, PC3. The conditions noted are these: ± SD, at least three independent experiments. Format: cell-based, human. Here is the method: as §1
The target of assay [5] is T2, Human ALDH3A1 (Homo sapiens, UniProt P30838).
T2 construct: made in house
T2 sequence (P30838 1-453): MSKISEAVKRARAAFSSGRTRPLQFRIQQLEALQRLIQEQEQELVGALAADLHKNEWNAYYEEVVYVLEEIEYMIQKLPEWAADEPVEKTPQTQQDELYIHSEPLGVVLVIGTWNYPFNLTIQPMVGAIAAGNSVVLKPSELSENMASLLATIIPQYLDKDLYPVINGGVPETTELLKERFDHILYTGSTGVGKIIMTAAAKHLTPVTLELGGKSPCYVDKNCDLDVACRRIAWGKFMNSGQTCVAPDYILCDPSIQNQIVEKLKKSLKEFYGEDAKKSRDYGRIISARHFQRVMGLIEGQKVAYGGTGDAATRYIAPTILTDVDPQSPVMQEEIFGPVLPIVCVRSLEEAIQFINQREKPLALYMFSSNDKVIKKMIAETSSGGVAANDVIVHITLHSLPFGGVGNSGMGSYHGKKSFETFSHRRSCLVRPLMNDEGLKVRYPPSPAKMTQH
Put plainly: ALDH3A1 inhibition, IC50, Ki and type of inhibition. Format: biochemical. The settings on record: 31 μM 4-NBA as substrate; mean ± SE. Here is the method: (§2) Human ALDH1A1, ALDH1A3, and ALDH3A1 were cloned and recombinantly expressed from the pET-30 Xa/LIC vector. Protein purification was achieved by affinity chromatography on a nickel-charged chelating Sepharose Fast Flow 5-mL column (His Trap column, Cytiva), which specifically binds the protein due to its N-terminal (His)6 tag, using an ÄKTA FPLC system (Cytiva), as previously described.[55] Enzymes including the His tag were stored at −80 °C in 20 mM Tris/HCl and 0.5 M NaCl, pH 8.0, until use. Reaction buffers were as follows: ALDH1A1 was assayed in 50 mM HEPES, 0.5 mM EDTA, and 0.5 mM DTT, pH 8.0; ALDH1A3 was assayed in 50 mM HEPES, 30 mM MgCl2, and 5 mM DTT, pH 8.0; and ALDH3A1 was assayed in 50 mM Tris–HCl and 5 mM DTT, pH 8.0. Activity under standard conditions was measured fluorimetrically at 25 °C using a Cary Eclipse (Varian) fluorimeter to follow the purification procedure and to check the enzyme concentration before each kinetic experiment. The fluorescence of NADH was characterized at 460 nm with excitation at 340 nm, and 5 μM NAD(P)H was added as an internal standard to obtain the absolute reaction rates.[55] Standard activity was measured at saturating concentrations of substrate using 30 μM hexanal (ALDH1A1), 250 μM hexanal (ALDH1A3), or 250 μM 4-NBA (ALDH3A1). NAD^+ was 500 μM for ALDH1A1 and ALDH1A3, and NADP^+ was 1 mM for ALDH3A1.
In order to determine the IC50 values, reaction rates were determined at various concentrations of inhibitor at a fixed concentration of substrate. As substrates for ALDH1A1, ALDH1A3, and ALDH3A1, 5 μM hexanal, 6 μM hexanal, and 31 μM 4-NBA, respectively, were used. The IC50 values were calculated by nonlinear fitting of the obtained data to a sigmoidal plot using GraFit 5.0 (Erithacus software), with the following 4-parameter equation [drawing 2] , where y is the specific activity, x is the inhibitor concentration, background is the minimum y value, range is the fitted uninhibited value minus the background, and s is the slope factor. Values are expressed as the mean ± SE.
Activity assays to determine the type of inhibition and Ki value were performed using various substrate and inhibitor concentrations maintaining the same conditions as for the IC50 experiments and using GraFit 5.0 for data processing. The data of enzymatic activities at different inhibitor concentrations were fitted to the Michaelis–Menten equation to determine the values of Km and Vmax. Next, results were fitted to the equations for competitive, given by [drawing 3]; noncompetitive, given by [drawing 4]; uncompetitive, given by [drawing 5]; and mixed, given by [drawing 6] .[56] The type of inhibition was selected based on the lowest error value. Parameters were expressed as the mean ± SE.

Assay [6] addresses T2, Human ALDH3A1. Put plainly: DEAB analogues as substrates of ALDH3A1 (substrate activity and kinetics). The format is biochemical. The method, then:
as §2
According to their structure with a carbonyl group, compounds were tested for their substrate properties against ALDH1A1, ALDH1A3, and ALDH3A1. […] Results are expressed as the percentage of activity at 10 μM versus the activity at 10 μM of their standard substrate (hexanal or 4-NBA). Values are expressed as the mean ± SE.
To calculate the Km value of compound 18 as a substrate for ALDH3A1, several concentrations of compound 18 were used. Experimental values were fitted to the adaptation of the Michaelis–Menten equation for substrate inhibition [drawing 1] and shown as the mean ± SE.

Where [7] appears, read: Homo sapiens, DU-145, 96 h exposure.
The mark [8] stands for this setting: Homo sapiens, PC-3, 96 h exposure.

For orientation: IC50 means the concentration that inhibits the measured activity by half. Regarding `O=Cc1ccc(N2CCCC2)c([N+](=O)[O-])c1` [Compound 34, 3-Nitro-4-(pyrrolidin-1-yl)benzaldehyde], the IC50 in assay [1] was 0.27 ± 0.03 µM.
As for `O=Cc1ccc(N2CCCCC2)c(Br)c1` [Compound 23, 3-Bromo-4-(piperidin-1-yl)benzaldehyde], the IC50 in assay [2] (setting [7]) was found to be 84 ± 12 µM; in assay [3] (Homo sapiens, LNCaP) it was 46 ± 10 µM; in assay [4] (setting [8]), 84 ± 6 µM.
The matching figures for `O=Cc1ccc(N2CCOCC2)c(Br)c1` [Compound 22, 3-Bromo-4-morpholinobenzaldehyde]: 155 ± 32 µM, 82 ± 10 µM and 196 ± 4 µM.
Consider `O=Cc1ccc(N2CCOCC2)c(Cl)c1` [Compound 9, 3-Chloro-4-morpholinobenzaldehyde], for which the IC50 in assay [5] amounted to 64.1 ± 6.7 µM; in assay [1], 2.37 ± 0.19 µM.
As usually defined, the Km is the substrate concentration at which the rate is half of its maximum. As to `O=Cc1ccc([N+](=O)[O-])cc1` [Compound 4-NBA, 4-Nitrobenzaldehyde, reference compound], in assay [6] (mean ± SE), the Km was 31 ± 4.9 µM and the “kcat as ALDH3A1 substrate” value is recorded as 359 ± 14 min^–1. The “Km fold higher than compound 18 (ALDH3A1 substrate)” value in assay [6] (ratio of Km values) amounted to 10 fold. In assay [6] (ratio of kcat values), the “turnover number (kcat) fold higher than compound 18 (ALDH3A1)” value stood at 26 fold.
As for `O=Cc1ccc(N2CCCCC2)c(Cl)c1` [Compound 8, 3-Chloro-4-(piperidin-1-yl)benzaldehyde], the IC50 in assay [2] (setting [7]) came to 110 ± 3 µM; in assay [3] (Homo sapiens, LNCaP), 37 ± 1.4 µM; in assay [4] (setting [8]), 130 ± 9 µM.
Taken in the same sequence, the figures for `CN1CCN(c2ccc(C=O)cc2Br)CC1` [Compound 21, 3-Bromo-4-(4-methylpiperazin-1-yl)benzaldehyde] were 187 ± 14 µM, 179 ± 14 µM and over 200 µM.
As to “4-(Dipropylamino)-3-methoxybenzaldehyde [Compound 17]”, the IC50 in assay [2] (96 h exposure) stood at 103 ± 4 µM; in assay [3] it was 61 ± 18 µM; in assay [4] (96 h exposure), 106 ± 25 µM.
“4-(Dipropylamino)-2-methoxybenzaldehyde [Compound 38]”: the IC50 in assay [2] (96 h exposure) came out at 71 ± 11 µM; in assay [3], 50 ± 3 µM; in assay [4] (96 h exposure), 75 ± 10 µM.
As a reminder, the Ki is the dissociation constant of the complex between target and ligand, obtained from inhibition or displacement. Turning to `Cc1cc(C=O)ccc1N1CCCCC1` [Compound 15, 3-Methyl-4-(piperidin-1-yl)benzaldehyde], the IC50 in assay [2] (setting [7]) stood at 106 ± 13 µM; in assay [1] it was 0.3 ± 0.07 µM; in assay [3] (Homo sapiens, LNCaP), 61 ± 14 µM; in assay [4] (setting [8]) it was 123 ± 29 µM. Besides, the “type of inhibition ALDH1A3” value in assay [1] is on record as “competitive”. For the same molecule, the inhibition constant (Ki) in assay [1] is under 1 µM.
Take `O=Cc1ccc(-n2ccnc2)cc1` [Compound 6, 4-(1H-Imidazole-1-yl)benzaldehyde]: the IC50 was 133 ± 11 µM in assay [2] (setting [7]); 137 ± 14 µM in assay [3] (Homo sapiens, LNCaP); 172 ± 30 µM in assay [4] (setting [8]).
For `CC(C)Oc1ccc(C=O)cc1` [Compound 16, 4-Isopropoxybenzaldehyde], the IC50 in assay [2] (setting [7]) was over 200 µM; in assay [1] it was 0.26 ± 0.01 µM; in assay [3] (Homo sapiens, LNCaP), over 200 µM; in assay [4] (setting [8]), over 200 µM. In addition, in assay [1], the “type of inhibition ALDH1A3” value is “competitive”. The Ki in assay [1] was under 1 µM. Also, in assay [6] (10 μM compound as substrate, relative to activity with 10 μM 4-NBA (Figure S2)), the ALDH3A1 substrate activity entry is listed as “good ALDH3A1 substrate”.
